Reference: PubChem BioAssay AID1963832 (Molecular Pharmacology Branch, DTP, NCI, 2024)

Test system: 885724-159-R-J1-PDC complex spheroid viability
Test: Anticancer human tumor 885724-159-R-J1-PDC patient-derived pancreatic adenocarcinoma cell line growth inhibition [POLQ]
Details: for IC50: curve of first compound; for viability, T/C: stronger effect = lower value
Summary of the method: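 Patient-derived tumour cells were co-cultured with HUVEC and mesenchymal stem cells as multicellular spheroids at 37 °C. They were treated with POLQ inhibitors (novobiocin, ART-558, RP6685) alone or combined with other agents. Top concentrations were at or near clinical Cmax (otherwise 10 microM; SN-38 at 1 microM), decreasing in half-log steps.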

[1] = second compound 0.0316 µM, first compound 0.00316 µM
[2] = second compound 0.0316 µM, first compound 0.01 µM
[3] = second compound 0.0316 µM, first compound 0.0316 µM
[4] = second compound 0.0316 µM, first compound 0.1 µM
[5] = second compound 0.0316 µM, first compound 0.316 µM
[6] = second compound 0.0316 µM, first compound 1 µM
[7] = second compound 0.1 µM, first compound 0.00316 µM
[8] = second compound 0.1 µM, first compound 0.01 µM
[9] = second compound 0.1 µM, first compound 0.0316 µM
[10] = second compound 0.1 µM, first compound 0.1 µM
[11] = second compound 0.1 µM, first compound 0.316 µM
[12] = second compound 0.1 µM, first compound 1 µM
[13] = second compound 0.316 µM, first compound 0.00316 µM
[14] = second compound 0.316 µM, first compound 0.01 µM
[15] = second compound 0.316 µM, first compound 0.0316 µM
[16] = second compound 0.316 µM, first compound 0.1 µM
[17] = second compound 0.316 µM, first compound 0.316 µM
[18] = second compound 0.316 µM, first compound 1 µM
[19] = second compound 1 µM, first compound 0.00316 µM
[20] = second compound 1 µM, first compound 0.01 µM
[21] = second compound 1 µM, first compound 0.0316 µM
[22] = second compound 1 µM, first compound 0.1 µM
[23] = second compound 1 µM, first compound 0.316 µM
[24] = second compound 1 µM, first compound 1 µM
[25] = second compound 3.16 µM, first compound 0.00316 µM
[26] = second compound 3.16 µM, first compound 0.01 µM
[27] = second compound 3.16 µM, first compound 0.0316 µM
[28] = second compound 3.16 µM, first compound 0.1 µM
[29] = second compound 3.16 µM, first compound 0.316 µM
[30] = second compound 3.16 µM, first compound 1 µM
[31] = second compound 10 µM, first compound 0.00316 µM
[32] = second compound 10 µM, first compound 0.01 µM
[33] = second compound 10 µM, first compound 0.0316 µM
[34] = second compound 10 µM, first compound 0.1 µM
[35] = second compound 10 µM, first compound 0.316 µM
[36] = second compound 10 µM, first compound 1 µM
[37] = second compound 0.0316 µM, first compound 3.16 µM
[38] = second compound 0.0316 µM, first compound 10 µM
[39] = second compound 0.1 µM, first compound 3.16 µM
[40] = second compound 0.1 µM, first compound 10 µM
[41] = second compound 0.316 µM, first compound 3.16 µM
[42] = second compound 0.316 µM, first compound 10 µM
[43] = second compound 1 µM, first compound 3.16 µM
[44] = second compound 1 µM, first compound 10 µM
[45] = second compound 3.16 µM, first compound 3.16 µM
[46] = second compound 3.16 µM, first compound 10 µM
[47] = second compound 10 µM, first compound 3.16 µM
[48] = second compound 10 µM, first compound 10 µM
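Further: spheroids exposed to compounds for 7 days.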

C=CCn1c(=O)c2cnc(Nc3ccc(N4CCN(C)CC4)cc3)nc2n1-c1cccc(C(C)(C)O)n1 + Nc1ccc(C#CCN(C(=O)Cc2ncc(C(F)(F)F)cc2C(F)(F)F)c2ccc(F)cc2)nn1
IC50 (second compound 0.0316 µM): 762 nM | IC50 (second compound 0.1 µM): 667 nM | IC50 (second compound 0.316 µM): 630 nM | IC50 (second compound 1 µM): > 1000 nM | IC50 (second compound 3.16 µM): 779 nM | IC50 (second compound 10 µM): 880 nM | viability, T/C [1]: 96.6% | viability, T/C [2]: 96% | viability, T/C [3]: 79.6% | viability, T/C [4]: 67.8% | viability, T/C [5]: 57.4% | viability, T/C [6]: 47.3% | viability, T/C [7]: 106% | viability, T/C [8]: 95.1% | viability, T/C [9]: 86.5% | viability, T/C [10]: 73.8% | viability, T/C [11]: 57.1% | viability, T/C [12]: 45.8% | viability, T/C [13]: 94.9% | viability, T/C [14]: 92.2% | viability, T/C [15]: 89.8% | viability, T/C [16]: 73.9% | viability, T/C [17]: 56.2% | viability, T/C [18]: 46% | viability, T/C [19]: 102% | viability, T/C [20]: 92.6% | viability, T/C [21]: 91.3% | viability, T/C [22]: 76% | viability, T/C [23]: 58.1% | viability, T/C [24]: 53.3% | viability, T/C [25]: 96.3% | viability, T/C [26]: 101% | viability, T/C [27]: 88.2% | viability, T/C [28]: 73.9% | viability, T/C [29]: 56% | viability, T/C [30]: 48.3% | viability, T/C [31]: 116% | viability, T/C [32]: 98.2% | viability, T/C [33]: 98.5% | viability, T/C [34]: 81.4% | viability, T/C [35]: 63.7% | viability, T/C [36]: 48.2%

CC[C@@]1(O)C(=O)OCc2c1cc1n(c2=O)Cc2cc3c(CN(C)C)c(O)ccc3nc2-1 + Nc1ccc(C#CCN(C(=O)Cc2ncc(C(F)(F)F)cc2C(F)(F)F)c2ccc(F)cc2)nn1
IC50 (second compound 0.0316 µM): > 100 nM | IC50 (second compound 0.1 µM): > 100 nM | IC50 (second compound 0.316 µM): > 100 nM | IC50 (second compound 1 µM): > 100 nM | IC50 (second compound 3.16 µM): > 100 nM | IC50 (second compound 10 µM): > 100 nM | viability, T/C (second compound 0.0316 µM, first compound 0.000316 µM): 91.3% | viability, T/C (second compound 0.0316 µM, first compound 0.001 µM): 89.7% | viability, T/C [1]: 94.6% | viability, T/C [2]: 83.6% | viability, T/C [3]: 77.8% | viability, T/C [4]: 63.3% | viability, T/C (second compound 0.1 µM, first compound 0.000316 µM): 108% | viability, T/C (second compound 0.1 µM, first compound 0.001 µM): 93% | viability, T/C [7]: 89.4% | viability, T/C [8]: 82% | viability, T/C [9]: 72.2% | viability, T/C [10]: 63% | viability, T/C (second compound 0.316 µM, first compound 0.000316 µM): 96.7% | viability, T/C (second compound 0.316 µM, first compound 0.001 µM): 101% | viability, T/C [13]: 93% | viability, T/C [14]: 94.2% | viability, T/C [15]: 77% | viability, T/C [16]: 58.9% | viability, T/C (second compound 1 µM, first compound 0.000316 µM): 100% | viability, T/C (second compound 1 µM, first compound 0.001 µM): 91.7% | viability, T/C [19]: 85.2% | viability, T/C [20]: 85.3% | viability, T/C [21]: 84.3% | viability, T/C [22]: 54.7% | viability, T/C (second compound 3.16 µM, first compound 0.000316 µM): 98% | viability, T/C (second compound 3.16 µM, first compound 0.001 µM): 102% | viability, T/C [25]: 98.5% | viability, T/C [26]: 83.2% | viability, T/C [27]: 85.1% | viability, T/C [28]: 59% | viability, T/C (second compound 10 µM, first compound 0.000316 µM): 98.5% | viability, T/C (second compound 10 µM, first compound 0.001 µM): 87.2% | viability, T/C [31]: 98.8% | viability, T/C [32]: 98.8% | viability, T/C [33]: 81.1% | viability, T/C [34]: 63%

Nc1ccn(C2OC(CO)C(O)C2(F)F)c(=O)n1 (stereo not drawn) + Nc1ccc(C#CCN(C(=O)Cc2ncc(C(F)(F)F)cc2C(F)(F)F)c2ccc(F)cc2)nn1
IC50 (second compound 0.0316 µM): 1040 nM | IC50 (second compound 0.1 µM): 1880 nM | IC50 (second compound 0.316 µM): 2270 nM | IC50 (second compound 1 µM): 886 nM | IC50 (second compound 3.16 µM): > 10000 nM | IC50 (second compound 10 µM): > 10000 nM | viability, T/C [3]: 65.5% | viability, T/C [4]: 57.2% | viability, T/C [5]: 47% | viability, T/C [6]: 55.1% | viability, T/C [37]: 54.8% | viability, T/C [38]: 42.1% | viability, T/C [9]: 70.2% | viability, T/C [10]: 60.2% | viability, T/C [11]: 54.3% | viability, T/C [12]: 55.2% | viability, T/C [39]: 49.6% | viability, T/C [40]: 44.2% | viability, T/C [15]: 72% | viability, T/C [16]: 62.9% | viability, T/C [17]: 56.5% | viability, T/C [18]: 53.2% | viability, T/C [41]: 49.1% | viability, T/C [42]: 46.3% | viability, T/C [21]: 72.4% | viability, T/C [22]: 55.4% | viability, T/C [23]: 54.2% | viability, T/C [24]: 51.2% | viability, T/C [43]: 49% | viability, T/C [44]: 47.1% | viability, T/C [27]: 77.5% | viability, T/C [28]: 60.9% | viability, T/C [29]: 55.7% | viability, T/C [30]: 50.8% | viability, T/C [45]: 55.8% | viability, T/C [46]: 46.4% | viability, T/C [33]: 96% | viability, T/C [34]: 72% | viability, T/C [35]: 69.3% | viability, T/C [36]: 59.2% | viability, T/C [47]: 54.9% | viability, T/C [48]: 55.2%

O=C(c1cc(Cc2n[nH]c(=O)c3ccccc23)ccc1F)N1CCN(C(=O)C2CC2)CC1 + Nc1ccc(C#CCN(C(=O)Cc2ncc(C(F)(F)F)cc2C(F)(F)F)c2ccc(F)cc2)nn1
IC50 (second compound 0.0316 µM): > 10000 nM | IC50 (second compound 0.1 µM): > 10000 nM | IC50 (second compound 0.316 µM): > 10000 nM | IC50 (second compound 1 µM): > 10000 nM | IC50 (second compound 3.16 µM): > 10000 nM | IC50 (second compound 10 µM): > 10000 nM | viability, T/C [3]: 90.7% | viability, T/C [4]: 97.2% | viability, T/C [5]: 95.1% | viability, T/C [6]: 88.2% | viability, T/C [37]: 89.4% | viability, T/C [38]: 80.4% | viability, T/C [9]: 95% | viability, T/C [10]: 94.5% | viability, T/C [11]: 85.7% | viability, T/C [12]: 96.7% | viability, T/C [39]: 84.1% | viability, T/C [40]: 77.6% | viability, T/C [15]: 85.4% | viability, T/C [16]: 94.5% | viability, T/C [17]: 100% | viability, T/C [18]: 87.8% | viability, T/C [41]: 86.2% | viability, T/C [42]: 75.8% | viability, T/C [21]: 101% | viability, T/C [22]: 90.6% | viability, T/C [23]: 84.6% | viability, T/C [24]: 99% | viability, T/C [43]: 88.7% | viability, T/C [44]: 84% | viability, T/C [27]: 98% | viability, T/C [28]: 92% | viability, T/C [29]: 84.7% | viability, T/C [30]: 82% | viability, T/C [45]: 88.1% | viability, T/C [46]: 80.8% | viability, T/C [33]: 102% | viability, T/C [34]: 94.3% | viability, T/C [35]: 87.4% | viability, T/C [36]: 94.1% | viability, T/C [47]: 95.6% | viability, T/C [48]: 75.6%
